Read-outs that look alike come from different tables or passages of the source.
Target: T1, Y2 receptors (Homo sapiens, UniProt P49146)
T1 construct: endogenous in cells; host or cells: KAN-Ts cells (membranes)
T1 sequence (P49146 1-381): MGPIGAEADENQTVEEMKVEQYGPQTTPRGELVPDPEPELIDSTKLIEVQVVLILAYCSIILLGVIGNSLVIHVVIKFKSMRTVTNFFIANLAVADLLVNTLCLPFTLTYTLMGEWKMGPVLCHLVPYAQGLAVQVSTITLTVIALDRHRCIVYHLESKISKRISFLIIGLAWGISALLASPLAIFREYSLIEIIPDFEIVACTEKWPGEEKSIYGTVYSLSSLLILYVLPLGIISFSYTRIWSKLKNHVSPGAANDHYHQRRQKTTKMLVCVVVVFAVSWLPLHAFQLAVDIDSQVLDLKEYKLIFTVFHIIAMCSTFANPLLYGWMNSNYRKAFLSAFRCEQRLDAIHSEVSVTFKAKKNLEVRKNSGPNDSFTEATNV
Assay: Radioligand binding assay ([125I]PYY, KAN-Ts cell membranes)
Conditions: average of results, read-out: IC50
How it was run: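 IC50 values are means of three to eight experiments run in duplicate, fitted sigmoidally against specific binding (defined by […]). Competition used 80 pM [^125I]PYY for 1 h at room temperature on KAN-Ts membranes carrying native Y2, with filtration and scintillation counting.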

| SMILES | IC50 (Table 1, [125I]PYY 80 pM) [nM] | IC50 (Table 2, [125I]PYY 80 pM) [nM] |
| --- | --- | --- |
| CCNC(=O)C(c1ccccc1)C1CCN(c2c(F)cc(NC(=O)C(CC)CC)cc2F)CC1 (stereo not shown) [Example 142, 2-Ethyl-N-{4-[4-(ethylcarbamoyl-phenyl-methyl)-piperidin-1-yl]-3,5-difluoro-phenyl}-butyramide] | 75 | – |
| CCN(CC)C(=O)C(c1ccccc1)N1CCN(c2ccc(NC(=O)C3CCCC3)cc2F)CC1 (stereo not shown) [Example 143, Cyclopentanecarboxylic acid {4-[4-(diethylcarbamoyl-phenyl-methyl)-piperazin-1-yl]-3-fluoro-phenyl}-amide] | 80 | – |
| CCNC(=O)C(c1ccccc1)C1CCN(c2ccc(NC(=O)C3(C)CCCCC3)cc2C#N)CC1 (stereo not shown) [Example 147, 1-Methyl-cyclohexanecarboxylic acid {3-cyano-4-[4-(ethylcarbamoyl-phenyl-methyl)-piperidin-1-yl]-phenyl}-amide] | 100 | – |
| CCNC(=O)C(c1ccccc1)C1CCN(c2ccc(NC(=O)[C@@H]3CCOC3)cc2C#N)CC1 (stereo partly drawn) [Example 148, (R)-Tetrahydro-furan-3-carboxylic acid {3-cyano-4-[4-(ethylcarbamoyl-phenyl-methyl)-piperidin-1-yl]-phenyl}-amide] | 120 | – |
| CCN(CC)C(=O)C(c1ccccc1)C1CCN(c2ccc(NC(=O)c3ccccc3SC)cc2F)CC1 (stereo not shown) [Example 149, N-{4-[4-(Diethylcarbamoyl-phenyl-methyl)-piperidin-1-yl]-3-fluoro-phenyl}-2-methylsulfanyl-benzamide] | 110 | – |
| CCC(CC)C(=O)Nc1ccc(N2CCN(C(C(=O)N(CC)CC)c3ccc(F)cc3)CC2)c(F)c1 (stereo not shown) [Example 155, N-(4-{4-[Diethylcarbamoyl-(4-fluoro-phenyl)-methyl]-piperazin-1-yl}-3-fluoro-phenyl)-2-ethyl-butyramide] | 200 | – |
| CCNC(=O)C(c1cccc(F)c1)N1CCN(c2ccc(NC(=O)C(CC)CC)cc2F)CC1 (stereo not shown) [Example 159, 2-Ethyl-N-(4-{4-[ethylcarbamoyl-(3-fluoro-phenyl)-methyl]-piperazin-1-yl}-3-fluoro-phenyl)-butyramide] | 250 | – |
| CCN(CC)C(=O)C(c1ccccc1)C1CCN(c2ccc(NC(=O)c3ccccc3N)cc2F)CC1 (stereo not shown) [Example 160, 2-Amino-N-{4-[4-(diethylcarbamoyl-phenyl-methyl)-piperidin-1-yl]-3-fluoro-phenyl}-benzamide] | 260 | – |
| CCN(CC)C(=O)C(c1ccccc1)N1CCN(c2ccc(NC(=O)CC3CC3)cc2F)CC1 (stereo not shown) [Example 161, 2-{4-[4-(2-Cyclopropyl-acetylamino)-2-fluoro-phenyl]-piperazin-1-yl}-N,N-diethyl-2-phenyl-acetamide] | 300 | – |
| CCN(CC)C(=O)C(c1ccccc1)C1CCN(c2ccc(NC(=O)c3cnoc3C)cc2F)CC1 (stereo not shown) [Example 163, 5-Methyl-isoxazole-4-carboxylic acid {4-[4-(diethylcarbamoyl-phenyl-methyl)-piperidin-1-yl]-3-fluoro-phenyl}-amide] | 300 | – |
| CCCS(=O)(=O)N(c1ccc(N2CCN(C(C(=O)N(CC)CC)c3ccccc3)CC2)c(F)c1)S(=O)(=O)CCC (stereo not shown) [Example 166, N-{4-[4-(Diethylcarbamoyl-phenyl-methyl)-piperazin-1-yl]-3-fluoro-phenyl}-N-dipropanesulfonanilide] | – | 560 |
| CCN(CC)C(=O)C(c1ccccc1)N1CCN(c2ccc(C(=O)C3CCCC3)cc2F)CC1 (stereo not shown) [Example 167, 2-[4-(4-Cyclopentanecarbonyl-2-fluoro-phenyl)-piperazin-1-yl]-N,N-diethyl-2-phenyl-acetamide] | – | 3300 |
| CCC(CC)C(=O)NCc1ccc(N2CCN(C(C(=O)N(CC)CC)c3ccccc3)CC2)c(F)c1 (stereo not shown) [Example 170, N-{4-[4-(Diethylcarbamoyl-phenyl-methyl)-piperazin-1-yl]-3-fluoro-benzyl}-2-ethyl-butyramide] | – | 260 |

The remaining lines, values ahead:

| IC50 (Table 1, [125I]PYY 80 pM) [nM] | IC50 (Table 2, [125I]PYY 80 pM) [nM] | SMILES |
| --- | --- | --- |
| 80 | – | CCN(CC)C(=O)C(c1ccccc1)C1CCN(c2ccc(NC(=O)c3cccnc3SC)cc2F)CC1 (stereo not shown) [Example 141, N-{4-[4-(Diethylcarbamoyl-phenyl-methyl)-piperidin-1-yl]-3-fluoro-phenyl}-2-methylsulfanyl-nicotinamide] |
| 100 | – | CCN(CC)C(=O)C(c1ccccc1)C1CCN(c2ccc(NC(=O)c3ccsc3C)cc2F)CC1 (stereo not shown) [Example 144, 2-Methyl-thiophene-3-carboxylic acid {4-[4-(diethylcarbamoyl-phenyl-methyl)-piperidin-1-yl]-3-fluoro-phenyl}-amide] |
| 100 | – | CCN(CC)C(=O)C(c1ccccc1)C1CCN(c2ccc(NC(=O)c3cccn3C)cc2F)CC1 (stereo not shown) [Example 145, 1-Methyl-1H-pyrrole-2-carboxylic acid {4-[4-(diethylcarbamoyl-phenyl-methyl)-piperidin-1-yl]-3-fluoro-phenyl}-amide] |
| 115 | – | CCC(CC)C(=O)Nc1ccc(N2CCN(C(C(=O)OC)c3cc(F)cc(F)c3)CC2)c(F)c1 (stereo not shown) [Example 146, (3,5-Difluoro-phenyl)-{4-[4-(2-ethyl-butyrylamino)-2-fluoro-phenyl]-piperazin-1-yl}-acetic acid methyl ester] |
| 140 | – | O=C(Nc1ccc(N2CCN(C(C(=O)N3CCC(F)(F)C3)c3ccccc3)CC2)c(F)c1)[C@H]1CCOC1 (stereo partly drawn) [Example 151, (S)-Tetrahydro-furan-3-carboxylic acid (4-{4-[2-(3,3-difluoro-pyrrolidin-1-yl)-2-oxo-1-phenyl-ethyl]-piperazin-1-yl}-3-fluoro-phenyl)-amide] |
| 170 | – | CCN(CC)C(=O)C(c1ccccc1)N1CCN(c2ccc(NC(=O)C3C(C)(C)C3(C)C)cc2F)CC1 (stereo not shown) [Example 152, 2,2,3,3-Tetramethyl-cyclopropanecarboxylic acid {4-[4-(diethylcarbamoyl-phenyl-methyl)-piperazin-1-yl]-3-fluoro-phenyl}-amide] |
| 142 | – | CCC(CC)C(=O)Nc1ccc(N2CCN(C(C(=O)N(CC)CC)c3cc(F)ccc3Br)CC2)c(F)c1 (stereo not shown) [Example 153, N-(4-{4-[(2-Bromo-5-fluoro-phenyl)-diethylcarbamoyl-methyl]-piperazin-1-yl}-3-fluoro-phenyl)-2-ethyl-butyramide] |
| 220 | – | CCN(CC)C(=O)C(c1ccccc1)C1CCN(c2ccc(NC(=O)Cc3cc(C)ccc3C)cc2F)CC1 (stereo not shown) [Example 154, 2-(1-{4-[2-(2,5-Dimethyl-phenyl)-acetylamino]-2-fluoro-phenyl}-piperidin-4-yl)-N,N-diethyl-2-phenyl-acetamide] |
| 230 | – | CCN(CC)C(=O)C(c1ccccc1)C1CCN(c2ccc(NC(=O)Cc3c(F)cccc3F)cc2F)CC1 (stereo not shown) [Example 156, 2-(1-{4-[2-(2,6-Difluoro-phenyl)-acetylamino]-2-fluoro-phenyl}-piperidin-4-yl)-N,N-diethyl-2-phenyl-acetamide] |
| 235 | – | CCN(CC)C(=O)C(c1ccccc1)C1CCN(c2ccc(NC(=O)c3cc(C)ccc3C)cc2F)CC1 (stereo not shown) [Example 157, N-{4-[4-(Diethylcarbamoyl-phenyl-methyl)-piperidin-1-yl]-3-fluoro-phenyl}-2,5-dimethyl-benzamide] |
| 240 | – | CCC(CC)C(=O)Nc1ccc(N2CCN(C(C(=O)N3CCC(F)(F)CC3)c3ccc(F)cc3)CC2)c(F)c1 (stereo not shown) [Example 158, N-(4-{4-[2-(4,4-Difluoro-piperidin-1-yl)-1-(4-fluoro-phenyl)-2-oxo-ethyl]-piperazin-1-yl}-3-fluoro-phenyl)-2-ethyl-butyramide] |
| 300 | – | CCN(CC)C(=O)C(c1ccccc1)N1CCN(c2ccc(NC(=O)Cc3ccccc3OC)cc2F)CC1 (stereo not shown) [Example 162, N,N-Diethyl-2-(4-{2-fluoro-4-[2-(2-methoxy-phenyl)-acetylamino]-phenyl}-piperazin-1-yl)-2-phenyl-acetamide] |
| – | 1100 | CCCS(=O)(=O)Nc1ccc(N2CCN(C(C(=O)N(CC)CC)c3ccccc3)CC2)c(F)c1 (stereo not shown) [Example 165, N,N-Diethyl-2-{4-[2-fluoro-4-(propane-1-sulfonylamino)-phenyl]-piperazin-1-yl}-2-phenyl-acetamide] |
| – | 740 | CCN(CC)C(=O)C(c1ccccc1)N1CCN(c2ccc(/C(=N/O)C3CCCC3)cc2F)CC1 (stereo not shown) [Example 168, 2-{4-[4-(Cyclopentyl-hydroxyimino-methyl)-2-fluoro-phenyl]-piperazin-1-yl}-N,N-diethyl-2-phenyl-acetamide] |
| – | 410 | CCC(C)C(=O)c1ccc(N2CCN(C(C(=O)N(CC)CC)c3ccccc3)CC2)c(F)c1 (stereo not shown) [Example 169, N,N-Diethyl-2-{4-[2-fluoro-4-(2-methyl-butyryl)-phenyl]-piperazin-1-yl}-2-phenyl-acetamide] |
| – | 270 | CCOC(=O)C(c1ccccc1)N1CCN(c2ccc(N3CCN(C(CC)CC)S3(=O)=O)cc2F)CC1 (stereo not shown) [Example 171, {4-[2-Fluoro-4-(5-(3-pentyl)-1,2,5-thiadiazolidine-2-yl,1,1-dioxide)-phenyl]-piperazin-1-yl}-phenyl-acetic acid ethyl ester] |
| – | 520 | CCCNS(=O)(=O)N(CCC)c1ccc(N2CCN(C(C(=O)N(CC)CC)c3ccccc3)CC2)c(F)c1 (stereo not shown) [Example 172, 2-{4-[4-(1,3-Dipropyl-sulfamoyl)-2-fluoro-phenyl]-piperazin-1-yl}-N,N-diethyl-2-phenyl-acetamide] |
| – | 590 | CCN(CC)C(=O)C(c1ccccc1)N1CCN(c2ccc(N3CCN(C(=O)OC)S3(=O)=O)cc2F)CC1 (stereo not shown) [Example 173, 3-{4-[4-(Diethylcarbamoyl-phenyl-methyl)-piperazin-1-yl]-3-fluoro-phenyl}-1,2,5-thiadiazolidine, 1,1-dioxide-2-carboxylic acid methyl ester] |

Source: patent publication US8183239B2, “Substituted piperazines and piperidines as modulators of the neuropeptide Y2 receptor” (Janssen Pharmaceutica NV, priority 2005, dated 2012)
